Data: publication PMC10141580, “Cyclic Dichalcogenides Extend the Reach of Bioreductive Prodrugs to Harness Thiol/Disulfide Oxidoreductases: Applications to seco-Duocarmycins Targeting the Thioredoxin System” (ACS Central Science, 2023)
“And” between values parts separate entries of the source, which are not always exact repeats. Identical values can stand only once. Like-named read-outs stand apart in the source and are kept apart here.

Test system: panel of 140 standard cancer cell lines
Experiment: ProliFiler-140 cancer cell line screen (CellTiterGlo, 72 h)
Format: cell-based
Conditions: for IC50: Homo sapiens
Procedure: Incubations were performed for 72 h before automated viability readout with CellTiterGlo (Figure 8).
End of Figure S11 (part 5 of 5): ProliFiler-140 cancer cell line screening for cytotoxicity of the prodrugs.
8-data-point dose response curves from CellTiter-Glo® viability readout.
ProliFiler-140 cell line panel part V

COc1cc2cc(C(=O)N3C[C@@H](CCl)c4c3cc(OC(=O)N3CCN(C(=O)CCC(=O)N5CCN(C)CC5)[C@H]5CSSC[C@H]53)c3ccccc43)[nH]c2c(OC)c1OC [P-SS66C-CBI-TMI]
IC50 (KG-1a, read-out: IC50 [M] (ProliFiler-140), KG-1 a (Blood)): 1.07e-07 M
IC50 (KMS-12-BM, read-out: IC50 [M] (ProliFiler-140), KMS-12-BM (Blood)): 3.3e-08 M
IC50 (LN-229, read-out: IC50 [M] (ProliFiler-140), LN229 (Brain)): 1.33e-07 M
IC50 (LNCaP, read-out: IC50 [M] (ProliFiler-140), LnCap (Prostate)): 2.7e-08 M
IC50 (LoVo, read-out: IC50 [M] (ProliFiler-140), LOVO (Colon)): 1.93e-08 M
IC50 (MCF7, MCF-7): 3.1e-08 M
IC50 (MCF7, read-out: IC50 [M] (ProliFiler-140), MCF-7 (Breast)): 3.1e-08 M
IC50 (MDA-MB-231, read-out: IC50 [M] (ProliFiler-140), MDA MB 231 (Breast)): 1.36e-07 M
IC50 (MDA-MB-435, MDA MB 435 (Skin), read-out: IC50 [M] (ProliFiler-140)): 1.3e-07 M
IC50 (MDA-MB-468, MDA-MB-468): 1.9e-08 M
IC50 (MDA-MB-468, read-out: IC50 [M] (ProliFiler-140), MDA-MB-468 (Breast)): 1.9e-08 M
IC50 (MEC1, read-out: IC50 [M] (ProliFiler-140), MEC-1 (Blood)): 1.1e-08 M
IC50 (MIA PaCa-2, read-out: IC50 [M] (ProliFiler-140), Mia PaCA 2 (Pancreas)): 8.56e-08 M
IC50 (MKN-1, read-out: IC50 [M] (ProliFiler-140), MKN-1 (Stomach)): 1.4e-07 M
IC50 (MKN-45, read-out: IC50 [M] (ProliFiler-140), MKN-45 (Stomach)): 8.2e-08 M
IC50 (MOLM-13, read-out: IC50 [M] (ProliFiler-140), MOLM-13 (Blood)): 5.3e-09 M
IC50 (MOLT-4, read-out: IC50 [M] (ProliFiler-140), MOLT-4 (Blood)): 8.6e-09 M
IC50 (MV4-11, read-out: IC50 [M] (ProliFiler-140), MV4-11 (Blood)): 1.5e-09 M
IC50 (NALM-6, read-out: IC50 [M] (ProliFiler-140), NALM-6 (Blood)): 2.47e-09 M
IC50 (NCI-H82, read-out: IC50 [M] (ProliFiler-140), NCI-H82 (Lung)): 8.8e-08 M
IC50 (NCI-H292, read-out: IC50 [M] (ProliFiler-140), NCI-H292 (Lung)): 3.8e-08 M
IC50 (NCI-H441, read-out: IC50 [M] (ProliFiler-140), NCI-H441 (Lung)): 5.05e-08 M
IC50 (NCI-H460, read-out: IC50 [M] (ProliFiler-140), H460 (Lung)): 5.5e-09 M
IC50 (NCI-H838, read-out: IC50 [M] (ProliFiler-140), NCI-H838 (Lung)): 7.4e-08 M
IC50 (NCI-H1048, read-out: IC50 [M] (ProliFiler-140), NCI-H1048 (Lung)): 4e-09 M
IC50 (NCI-H1299, read-out: IC50 [M] (ProliFiler-140), H1299 (Lung)): 5.38e-08 M
IC50 (NCI-H1437, read-out: IC50 [M] (ProliFiler-140), NCI-H1437 (Lung)): 1.85e-08 M
IC50 (NCI-H1563, read-out: IC50 [M] (ProliFiler-140), NCI-H1563 (Lung)): 1.1e-07 M
IC50 (NCI-H1573, read-out: IC50 [M] (ProliFiler-140), NCI-H1573 (Lung)): 9e-08 M
IC50 (NCI-H1581, read-out: IC50 [M] (ProliFiler-140), NCI-H1581 (Lung)): 4.66e-08 M
IC50 (NCI-H1703, read-out: IC50 [M] (ProliFiler-140), NCI-H1703 (Lung)): 5.1e-08 M
IC50 (NCI-H1838, read-out: IC50 [M] (ProliFiler-140), NCI-H1838 (Lung)): 7.7e-08 M
IC50 (NCI-H2009, read-out: IC50 [M] (ProliFiler-140), NCI-H2009 (Lung)): 2.66e-08 M
IC50 (NCI-H2228, read-out: IC50 [M] (ProliFiler-140), H2228 (Lung)): 4.53e-08 M
IC50 (NCI-H2286, read-out: IC50 [M] (ProliFiler-140), NCI-H2286 (Lung)): 1.7e-08 M
IC50 (NCI-N87, read-out: IC50 [M] (ProliFiler-140), NCI-N87 (Stomach)): 7.5e-08 M
IC50 (OCI-AML-3, read-out: IC50 [M] (ProliFiler-140), OCI-AML3 (Blood)): 1.3e-08 M
IC50 (OCI-AML-5, read-out: IC50 [M] (ProliFiler-140), OCI-AML5 (Blood)): 6e-09 M
IC50 (OCI-LY19, read-out: IC50 [M] (ProliFiler-140), OCI-LY19 (Blood)): 2.83e-09 M
IC50 (OPM-2, read-out: IC50 [M] (ProliFiler-140), OPM-2 (Blood)): 2.61e-08 M
IC50 (OVCAR-3, read-out: IC50 [M] (ProliFiler-140), OVCAR-3 (Ovary)): 7.9e-08 M
IC50 (P31-FUJ, read-out: IC50 [M] (ProliFiler-140), P31/FUJ (Blood)): 2.3e-08 M
IC50 (PANC-1, read-out: IC50 [M] (ProliFiler-140), PANC-1 (Pancreas)): 2e-07 M
IC50 (RL95-2, read-out: IC50 [M] (ProliFiler-140), RL95-2 (Endometrium)): 1.25e-07 M
IC50 (RPMI-8226, RPMI 8226): 1.2e-08 M
IC50 (RPMI-8226, read-out: IC50 [M] (ProliFiler-140), RPMI 8226 (Blood)): 1.19e-08 M
IC50 (SAOS-2, read-out: IC50 [M] (ProliFiler-140), Saos-2 EC (Bone)): 6.63e-08 M
IC50 (SCLC-21H, read-out: IC50 [M] (ProliFiler-140), SCLC-21H (Lung)): 2.56e-08 M
IC50 (SJSA-1, read-out: IC50 [M] (ProliFiler-140), SJSA-1 (Bone)): 9.77e-08 M
IC50 (SK-BR-3, read-out: IC50 [M] (ProliFiler-140), SK-BR-3 (Breast)): 4.2e-08 M
IC50 (SK-ES1, read-out: IC50 [M] (ProliFiler-140), SK-ES-1 (Bone)): 2.71e-09 M
IC50 (SK-LU-1, read-out: IC50 [M] (ProliFiler-140), SK-LU-1 (Lung)): 2.3e-08 M
IC50 (SK-MEL3, read-out: IC50 [M] (ProliFiler-140), SK-MEL-3 (Skin)): 1.6e-07 M
IC50 (SK-N-FI, read-out: IC50 [M] (ProliFiler-140), SK-N-FI (Brain)): 1.39e-07 M
IC50 (SK-N-MC, read-out: IC50 [M] (ProliFiler-140), SK-N-MC (Brain)): 1.6e-09 M
IC50 (SK-N-SH, read-out: IC50 [M] (ProliFiler-140), SK-N-SH (Brain)): 1.1e-07 M
IC50 (SK-OV-3, read-out: IC50 [M] (ProliFiler-140), SK-OV3 (Ovary)): 3.72e-08 M
IC50 (SNU1, read-out: IC50 [M] (ProliFiler-140), SNU-1 (Stomach)): 2.3e-08 M
IC50 (SNU-16, read-out: IC50 [M] (ProliFiler-140), SNU-16 (Stomach)): 6.23e-08 M
IC50 (SU-DHL-5, read-out: IC50 [M] (ProliFiler-140), SU-DHL-5 (Blood)): 2.6e-09 M
IC50 (SW480, read-out: IC50 [M] (ProliFiler-140), SW480 (Colon)): 5.51e-08 M
IC50 (SW948, read-out: IC50 [M] (ProliFiler-140), SW948 (Colon)): 1.43e-07 M
IC50 (SW1783, read-out: IC50 [M] (ProliFiler-140), SW-1783 (Brain)): 4.85e-08 M
IC50 (SW-620, SW620): 1.5e-07 M
IC50 (SW-620, read-out: IC50 [M] (ProliFiler-140), SW620 (Colon)): 1.53e-07 M
IC50 (SiHa, read-out: IC50 [M] (ProliFiler-140), SiHa (Ovary)): 1.13e-07 M
IC50 (T47D, T-47D): 9.8e-08 M
IC50 (T47D, read-out: IC50 [M] (ProliFiler-140), T-47D (Breast)): 9.8e-08 M
IC50 (T98G, read-out: IC50 [M] (ProliFiler-140), T98G (Brain)): 8.08e-08 M
IC50 (U2OS, read-out: IC50 [M] (ProliFiler-140), U2OS (Bone)): 3.19e-08 M
IC50 (U-87 MG, read-out: IC50 [M] (ProliFiler-140), U87MG (Brain)): 1.5e-07 M
IC50 (U-118-MG, read-out: IC50 [M] (ProliFiler-140), U118MG (Brain)): 1.86e-07 M
IC50 (U-251, read-out: IC50 [M] (ProliFiler-140), U251MG (Brain)): 1.2e-07 M
IC50 (U-266, read-out: IC50 [M] (ProliFiler-140), U-266 (Blood)): 9.38e-09 M
IC50 (U-937, read-out: IC50 [M] (ProliFiler-140), U-937 (Blood)): 1.15e-08 M
IC50 (ZR-75-1, read-out: IC50 [M] (ProliFiler-140), ZR-75-1 (Breast)): 3.07e-07 M
Reductive Activation Index (Hs 746T (Stomach)): 13
Reductive Activation Index (HuH7 (Liver)): 6.45
Reductive Activation Index (Hutu 80 (Duodenum)): 5.62 and 5.6
Reductive Activation Index (JIMT-1 (Breast)): 15
Reductive Activation Index (K562 (Blood)): 8.6
Reductive Activation Index (KARPAS 299 (Blood)): 6.55
Reductive Activation Index (KG-1 (Blood)): 3.24
